This note sets out measurements from US7256201B2, “Selective estrogen receptor-β ligands” (AstraZeneca AB, priority 2000, dated 2007).

One assay deals with T1, human recombinant ERα (Homo sapiens, UniProt P03372).
T1 construct: purchased PanVera (Madison, Wis.)
T1 sequence (P03372 1-595): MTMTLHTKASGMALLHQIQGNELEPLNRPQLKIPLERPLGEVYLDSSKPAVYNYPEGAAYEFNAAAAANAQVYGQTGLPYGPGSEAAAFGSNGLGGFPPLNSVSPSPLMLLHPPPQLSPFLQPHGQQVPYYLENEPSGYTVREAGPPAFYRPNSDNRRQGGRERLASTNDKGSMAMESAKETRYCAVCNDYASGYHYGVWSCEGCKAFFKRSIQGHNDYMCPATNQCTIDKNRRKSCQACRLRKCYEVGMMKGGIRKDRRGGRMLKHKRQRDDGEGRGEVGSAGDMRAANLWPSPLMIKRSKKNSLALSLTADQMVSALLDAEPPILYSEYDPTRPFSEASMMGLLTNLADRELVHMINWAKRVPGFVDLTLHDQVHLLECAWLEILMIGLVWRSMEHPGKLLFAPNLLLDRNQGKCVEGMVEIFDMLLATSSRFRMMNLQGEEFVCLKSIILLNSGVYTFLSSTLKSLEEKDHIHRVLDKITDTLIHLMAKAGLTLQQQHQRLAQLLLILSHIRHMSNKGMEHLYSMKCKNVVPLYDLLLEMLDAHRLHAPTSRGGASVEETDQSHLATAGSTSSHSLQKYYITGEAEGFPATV
Briefly: Fluorescence polarization estrogen receptor (ERFP) binding assay, ERα. The note with it: competition with Fluormone ES2; IC50 converted to Ki by Kenakin formula; read-out: FP α-ER Ki. The protocol:
(§1) A homogeneous mix-and-measure estrogen receptor (ER) binding assay which utilizes fluorescence polarization (FP) technology is used to identify compounds with affinity for the estrogen receptor. Purchased from PanVera (Madison, Wis.), assay reagents include purified human recombinant ERα, human recombinant ERβ, ES2 screening buffer (100 mM potassium phosphate, pH 7.4, 100 μg/mL bovine gamma globulin), and Fluormone™ ES2.
(§2) For competition binding experiments, dilutions of test compounds are prepared at 2× the final assay concentration in 0.2% DMSO in ES2 Screening buffer on TECAN Genosys, and 25 μL compound/well is dispensed into black Costar ½ volume 96-well plates. Dependent upon a lot specific Kd determination, 10-40 nM ERα or 10-40 nM ERβ and 1 nM Fluormone ES2 are then added to these plates in a final assay volume of 50 μL/well. Plates are gently shaken for at least 5 minutes to mix and incubated for at least 1 hr 45 minutes to achieve equilibrium. (Reaction mixtures are stable for up to 5 hours). After centrifugation to remove air bubbles, plates are read on an LJL Analyst or Acquest equipped with Criterion software at the following settings: Fluorescence Polarization Mode; Static Polarizer on Excitation Side; Dynamic Polarizer on Emission Side; Excitation λ=485×/−5 10 nm; Emission λ=520+/−12.5 nm.
(§3) Polarized fluorescence intensity values are collected and subsequently converted electronically to millipolarization (mp) values. Following data reduction and normalization with Excel and/or Prism software, % Ctrl values at the various test concentrations are used to obtain IC50 values via non-linear regression analysis of a four-parameter logistic equation.
(§4) Because ligand depletion is a consideration in this assay (˜40-60% input ES2 is bound in the assay), IC50 values are converted to Ki values through application of the Kenakin formula, as outlined in the reference below, rather than via the more routinely-used Cheng-Prusoff formula.
Background: In fluorescence polarisation assays a small probe gives low polarisation when free and higher when bound to something large.

In another assay the target is T2, αER (Homo sapiens, UniProt P03372).
T2 construct: expressed in transfected cells; host or cells: 293 cells (Human Embryonic Kidney, ATCC CRL-1573)
T2 sequence (P03372 1-595): T1 sequence (P03372 1-595)
Briefly: Cell-based assay for ER transcriptional activity (ERE β-gal reporter), αER-transfected 293 cells. The note with it: 293 cells transfected with αER and ERE reporter; for ERE α-ER Max: maximal response, unit assumed; for EC50: read-out: ERE α-ER EC50. The protocol: (§5) ERs are ligand-dependent transcription factors that bind the promoter regions of genes at a consensus DNA sequence called the estrogen responsive element (ERE). The ER agonist or antagonist activity of a drug was determined by measuring the amount of reporter enzyme activity expressed from a plasmid under the control of an estrogen-responsive element when cells transiently transfected with ER and the reporter plasmid were exposed to drug. These experiments were conducted according to the following methods.
(§6) Estrogen Receptors alpha (αER, Gen Bank accession #M12674), and beta (βER, Gen Bank #X99101 were cloned into the expression vector pSG5 (Stratagene). A trimer of the vitellogenin-gene estrogen response element (vitERE) was synthesized as an oligonucleotide and attached to a beta-globin basal promoter in a construct named pERE3 gal. This response element and promoter were removed from pERE3 gal by digestion with the endonucleases SpeI (filled with Klenow fragment) and HindIII. This blunt/Hind III fragment was cloned into the β-galactosidase (β-gal) enhancer reporter plasmid (pBGALenh, Stratagene). αER and βER plasmids were purified using a the Endo Free Maxi Kit (Qiagen), and the DNA concentration and purity (A260/280 ratio) were determined spectrophotometrically (Pharmacia). Only DNA with A260/280 ratio of 1.8 and a concentration of >1 ug/uL was used for transfections.
(§7) All Transfections are performed in 293 cells (Human Embryonic Kidney cells ATCC #CRL-1573). Cells are grown in DMEM supplemented with 10% FBS, glutamine, sodium pyruvate and penicilin/streptomycin. Cells are grown to 70% confluency and split 1:4.
(§8) • 1. 293 cells are split the night before onto collagen I-coated 150 mm tissue-culture plates (Biocoat, Becton Dickinson #354551) at a density of 60-70% in DMEM Mediatech 17-205-CV) 10% charcoal-stripped FBS (biocell #6201-31). Approximately 1×10^7 cells/plate will yield 70% confluency. • 2. The next morning, 1 hour prior to transfection, the media is changed to fresh DMEM 10% FBS stripped and supplements. • 3. Transfections are performed using the Profection Kit (Promega #E1200). This kit is based on the calcium-phosphate-mediated transfection technique. Reagents are added in sterile polystyrene tubes in the following order:
(§9) Solution A • 15 μg αER or βER • 45 μg Reporter (pBGALenh or ERE3) • 1.5 mL Sterile Water • 186 μL CaCl2 • *Mix gently
(§10) Solution B • 1.5 mL 2× Hank's Buffered Salt Solution • 4. Using a vortex set on low, add solution A to solution B dropwise. The resulting solution should become milky in color. It is important to achieve thorough mixing. The solution is allowed to settle for 30 minutes, then vortexed before adding the solution to cells. • 5. Add the mixture to 150 mm plates dropwise. Mix well by rocking plates back and forth and side to side gently. After an hour, a very fine precipitate should be seen floating on and above cells under 20× magnification. If this precipitate is not observed, the transfection will not be effective. Incubate the cells for 12 hours. Receptor Stimulation: • 1. The day after transfection, cells are washed 2× with calcium- and magnesium-free Mg free PBS containing 1 mM EGTA (pH 7.6). Cells are trypsinized for 2 min with 3 mL of trypsin-EDTA. Trypsin is neutralized with DMEM 10% FCS. Cells are pelleted at 1000×g for 5 min. The cell pellet is then resuspended in 5 mL DMEM plus 2% phenol-red-free FCS supplemented with glutamine, pyruvate, and Penn/Strep. • 2. 50 μl of the resulting cell suspension is plated into each well of 96-well tissue culture dishes (Biocoat B&D #354407) using a multi-channel pipettor. The dishes have been previously loaded with 50 μL of DMSO-solubilized test compounds at twice the test concentration in DMEM. Data reported are either n=4 wells (single poke) and n=2 wells (9-point concentration-response curves). • 3. Cells are incubated overnight at 37° C. in the selected compounds. Reporter Assay: • 1. […]

The next assay has as its target T3, βER (Homo sapiens, UniProt Q92731).
T3 construct: expressed in transfected cells; host or cells: 293 cells (Human Embryonic Kidney, ATCC CRL-1573)
Briefly: Cell-based assay for ER transcriptional activity (ERE β-gal reporter), βER-transfected 293 cells. The note with it: for EC50 / ERE β-ER Max: 293 cells transfected with βER and ERE reporter; for ERE β-ER Max: maximal response, unit assumed; for ERE Selectivity: ratio α-ER EC50 / β-ER EC50. The method, then: as §5, §6, §7, §8, §9, §10

For the next assay, the target named is T4, human recombinant ERβ (Homo sapiens, UniProt Q92731).
T4 construct: purchased PanVera (Madison, Wis.)
Briefly: Fluorescence polarization estrogen receptor (ERFP) binding assay, ERβ. The note with it: for Ki: competition with Fluormone ES2, IC50 converted to Ki by Kenakin formula, read-out: FP β-ER Ki; for FP Selectivity: ratio α-ER Ki / β-ER Ki. The protocol: as §1, §2, §3, §4

T3 sequence (Q92731 54-530 limits assumed): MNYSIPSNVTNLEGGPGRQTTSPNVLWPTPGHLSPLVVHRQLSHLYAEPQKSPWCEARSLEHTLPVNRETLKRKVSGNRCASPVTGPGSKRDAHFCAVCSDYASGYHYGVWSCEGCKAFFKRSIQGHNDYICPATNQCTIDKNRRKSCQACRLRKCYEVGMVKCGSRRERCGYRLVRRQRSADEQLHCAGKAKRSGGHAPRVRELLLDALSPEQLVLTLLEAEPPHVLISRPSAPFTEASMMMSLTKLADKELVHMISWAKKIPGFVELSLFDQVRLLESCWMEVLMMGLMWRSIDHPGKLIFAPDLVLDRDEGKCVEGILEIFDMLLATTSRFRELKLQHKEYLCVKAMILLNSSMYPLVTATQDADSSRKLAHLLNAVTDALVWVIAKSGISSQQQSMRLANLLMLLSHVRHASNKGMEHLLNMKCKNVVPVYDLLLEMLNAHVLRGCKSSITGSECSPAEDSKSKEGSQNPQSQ
T4 sequence (Q92731 whole entry): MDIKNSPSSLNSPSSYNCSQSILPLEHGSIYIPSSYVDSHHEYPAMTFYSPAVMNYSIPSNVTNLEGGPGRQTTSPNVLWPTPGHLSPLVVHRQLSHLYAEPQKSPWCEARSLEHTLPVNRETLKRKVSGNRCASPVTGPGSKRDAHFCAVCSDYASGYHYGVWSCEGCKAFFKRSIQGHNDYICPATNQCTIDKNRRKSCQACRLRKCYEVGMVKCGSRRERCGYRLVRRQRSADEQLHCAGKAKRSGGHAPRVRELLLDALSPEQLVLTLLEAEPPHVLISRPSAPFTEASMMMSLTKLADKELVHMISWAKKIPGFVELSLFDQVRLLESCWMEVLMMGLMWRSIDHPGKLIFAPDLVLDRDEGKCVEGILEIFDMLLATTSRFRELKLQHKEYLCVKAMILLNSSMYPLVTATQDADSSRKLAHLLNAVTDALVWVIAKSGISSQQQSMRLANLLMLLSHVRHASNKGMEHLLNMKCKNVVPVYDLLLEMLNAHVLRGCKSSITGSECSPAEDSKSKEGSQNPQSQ

“6-Hydroxy-2-(4-hydroxyphenyl)-1-phenylisoindoline and 5-hydroxy-2-(4-hydroxyphenyl)-1-phenylisoindoline [Example 27]”: the Ki (in general, the equilibrium dissociation constant of an inhibitor or competing ligand from its target) on human recombinant ERα is 170 nM. Besides, on αER, the ERE α-ER Max came to 54% and the EC50 (commonly the concentration needed to bring the measured effect to its halfway point) stood at 6.8 nM. In addition, at βER, the EC50 stood at 34 nM, the ERE β-ER Max was 90% and the “ERE Selectivity” value worked out at 0.2. In addition, on human recombinant ERβ, the inhibition constant (Ki) was 190 nM and the “FP Selectivity” value is recorded as 0.9.

In the case of `Oc1ccc(N2CCc3cc(O)ccc3C2)cc1` [Example 1, 2-(4-Hydroxyphenyl)-1,2,3,4-tetrahydroisoquinoline-6-ol], the Ki at human recombinant ERα is 1000 nM; at human recombinant ERβ, 375 nM. Further, at human recombinant ERβ, the “FP Selectivity” value is 2.7.

Take `Oc1ccc(N2CCc3cc(O)ccc3C2)c(Cl)c1` [Example 2, 2-(2-Chloro-4hydroxyphenyl)-1,2,3,4-tetrahydroisoquinoline-6-ol]: the values for the Ki on human recombinant ERα and on human recombinant ERβ were 48 nM and 18 nM, respectively. Also, at human recombinant ERβ, the “FP Selectivity” value amounted to 2.7.

Turning to `Cc1cc(O)ccc1N1CCc2cc(O)ccc2C1` [Example 3, 2-(4-Hydroxy-2-methylphenyl)-1,2,3,4-tetrahydroisoquinolin-6-ol], the Ki at human recombinant ERα was 60 nM. Moreover, on αER, the ERE α-ER Max was 93% and the 50% effective concentration (EC50) amounted to 28.2 nM. Moreover, at βER, the EC50 stood at 35.7 nM, the ERE β-ER Max was 103% and the “ERE Selectivity” value is 0.8. At human recombinant ERβ, the inhibitory constant (Ki) stood at 8 nM and the “FP Selectivity” value worked out at 7.4.

Consider `COc1ccc([N+](=O)[O-])cc1N1CCc2cc(O)ccc2C1` [Example 4, 2-(2-Methoxy-5-nitrophenyl)-1,2,3,4-tetrahydroisoquinolin-6-ol], for which the Ki at human recombinant ERα turned out to be 655 nM. Further, at human recombinant ERβ, the Ki came out at 459 nM and the “FP Selectivity” value was found to be 1.4.

For `O=[N+]([O-])c1cc(O)ccc1N1CCc2cc(O)ccc2C1` [Example 5, 2-(4-Hydroxy-2-nitrophenyl)-1,2,3,4-tetrahydroisoquinolin-6-ol], the inhibitory constant (Ki) at human recombinant ERα was 62 nM. Further, on human recombinant ERβ, the Ki was 13 nM and the “FP Selectivity” value was determined as 4.8.

On to `Cc1ccc(C2c3ccc(O)cc3CCN2c2ccc(O)cc2)c(C)c1` (stereo not shown) [Example 7, 1-(2,4-Dimethylphenyl)-2-(4-hydroxyphenyl)-1,2,3,4-tetrahydroisoquinolin-6-ol], for which the Ki at human recombinant ERα was found to be 62 nM. Also, on human recombinant ERβ, the Ki was 35 nM and the “FP Selectivity” value turned out to be 1.8.

In the case of `CSc1ccc(C2c3ccc(O)cc3CCN2c2ccc(O)cc2)cc1` (stereo not shown) [Example 8, 2-(4-Hydroxyphenyl)-1-(4-methylsulfanylphenyl)-1,2,3,4-tetrahydroisoquinolin-6-ol], on human recombinant ERα, the Ki worked out at 18 nM. Besides, on human recombinant ERβ, the inhibition constant (Ki) was determined as 39 nM and the “FP Selectivity” value was 0.5.

For the compound `Oc1ccc(N2CCc3cc(O)ccc3C2c2ccc(C(F)(F)F)cc2)cc1` (stereo not shown) [Example 9, 2-(4-Hydroxyphenyl)-1-(4-trifluoromethylphenyl)-1,2,3,4-tetrahydroisoquinolin-6-ol], on human recombinant ERα, the inhibitory constant (Ki) was 8 nM. At human recombinant ERβ, the Ki came out at 4.9 nM and the “FP Selectivity” value was found to be 1.6.

Take `CCc1ccc(C2c3ccc(O)cc3CCN2c2ccc(O)cc2)cc1` (stereo not shown) [Example 11, 1-(4-Ethylphenyl)-2-(4-hydroxyphenyl)-1,2,3,4-tetrahydroisoquinolin-6-ol]: the Ki on human recombinant ERα turned out to be 10 nM; on human recombinant ERβ, 9 nM. For the same compound, the “FP Selectivity” value at human recombinant ERβ is 1.1.

Consider `Oc1ccc(N2CCc3cc(O)ccc3C2Cc2ccccc2)cc1` (stereo not shown) [Example 16, 1-Benzyl-2-(4-hydroxy-phenyl)-1,2,3,4-tetrahydro-isoquinolin-6-ol], for which the Ki on human recombinant ERα came out at 15 nM; on human recombinant ERβ it was 18 nM. In addition, the “FP Selectivity” value at human recombinant ERβ was found to be 0.8.

On to `Cc1ccc(N2CCc3cc(O)ccc3C2c2cccs2)cc1O` (stereo not shown) [Example 22, 2-(3-Hydroxy-4-methyl-phenyl)-1-thiophen-2-yl-1,2,3,4-tetrahydro-isoquinolin-6-ol], for which the Ki was 12 nM at human recombinant ERα and 3.5 nM on human recombinant ERβ. On human recombinant ERβ, the “FP Selectivity” value is reported as 3.5.

Consider `O=C(c1ccc(O)cc1)N1CCc2cc(O)ccc2C1` [Example 23, (6-Hydroxy-3,4-dihydro-1H-isoquinolin-2-yl)-(4-hydroxy-phenyl)-methanone], for which, on human recombinant ERα, the Ki was 660 nM. Also, on human recombinant ERβ, the Ki was 229 nM and the “FP Selectivity” value was found to be 2.9.

`O=C(c1ccc(O)cc1)N1CCc2ccc(O)cc2C1` [Example 24, (7-Hydroxy-3,4-dihydro-1H-isoquinolin-2-yl)-(4-hydroxy-phenyl)-methanone]: at human recombinant ERα, the Ki amounted to 660 nM. Also, on human recombinant ERβ, the Ki was 215 nM and the “FP Selectivity” value is 3.1.
